# According to PMC7116157 (Nature chemical biology, 2019):
# Target: T1, Cleavage and Polyadenylation Specificity Factor 3 (CPSF3) (Homo sapiens, UniProt Q9UKF6)
# T1 sequence (Q9UKF6 1-459): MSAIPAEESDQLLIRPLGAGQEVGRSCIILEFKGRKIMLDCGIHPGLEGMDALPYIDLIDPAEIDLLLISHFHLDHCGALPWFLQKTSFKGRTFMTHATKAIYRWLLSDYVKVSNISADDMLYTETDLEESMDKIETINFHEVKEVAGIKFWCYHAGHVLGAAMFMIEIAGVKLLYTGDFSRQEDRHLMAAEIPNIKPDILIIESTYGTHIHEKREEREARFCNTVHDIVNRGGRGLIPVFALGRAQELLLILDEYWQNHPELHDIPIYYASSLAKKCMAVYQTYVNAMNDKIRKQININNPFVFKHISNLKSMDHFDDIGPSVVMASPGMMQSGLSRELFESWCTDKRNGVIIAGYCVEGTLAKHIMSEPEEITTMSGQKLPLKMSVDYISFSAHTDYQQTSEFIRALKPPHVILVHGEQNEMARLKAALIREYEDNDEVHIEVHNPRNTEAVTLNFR
# Assay: […] Å co-crystal structure
# Format: binding
structure (smiles),measurement,value
CN1CCN(CCOc2c(Cl)cc(C(=O)N[C@@H](Cc3ccccc3)C(=O)O)c(O)c2Cl)CC1 [compound 2],Kd,370 nM
